Assays:
Type in all cases: cell-based
[1] = test system: Protein cereblon/Androgen receptor (Homo sapiens), P10275+Q96SW2 [UNDEFINED MUTATION]; assay: PROTAC activity at CRBN/Androgen receptor splice variant 7 in human 22Rv1 cells assessed as induction of AR-V7 degradation at 1 uM incubated for 24 hrs by Western blot analysis relative to control
[2] = target: T1, Protein cereblon/Androgen receptor (Homo sapiens, UniProt P10275+Q96SW2); assay: PROTAC activity at CRBN/AR in human VCaP cells assessed as induction of AR degradation at 1 uM incubated for 24 hrs by Western blot analysis relative to control
T1 sequence (P10275 whole entry, looked up): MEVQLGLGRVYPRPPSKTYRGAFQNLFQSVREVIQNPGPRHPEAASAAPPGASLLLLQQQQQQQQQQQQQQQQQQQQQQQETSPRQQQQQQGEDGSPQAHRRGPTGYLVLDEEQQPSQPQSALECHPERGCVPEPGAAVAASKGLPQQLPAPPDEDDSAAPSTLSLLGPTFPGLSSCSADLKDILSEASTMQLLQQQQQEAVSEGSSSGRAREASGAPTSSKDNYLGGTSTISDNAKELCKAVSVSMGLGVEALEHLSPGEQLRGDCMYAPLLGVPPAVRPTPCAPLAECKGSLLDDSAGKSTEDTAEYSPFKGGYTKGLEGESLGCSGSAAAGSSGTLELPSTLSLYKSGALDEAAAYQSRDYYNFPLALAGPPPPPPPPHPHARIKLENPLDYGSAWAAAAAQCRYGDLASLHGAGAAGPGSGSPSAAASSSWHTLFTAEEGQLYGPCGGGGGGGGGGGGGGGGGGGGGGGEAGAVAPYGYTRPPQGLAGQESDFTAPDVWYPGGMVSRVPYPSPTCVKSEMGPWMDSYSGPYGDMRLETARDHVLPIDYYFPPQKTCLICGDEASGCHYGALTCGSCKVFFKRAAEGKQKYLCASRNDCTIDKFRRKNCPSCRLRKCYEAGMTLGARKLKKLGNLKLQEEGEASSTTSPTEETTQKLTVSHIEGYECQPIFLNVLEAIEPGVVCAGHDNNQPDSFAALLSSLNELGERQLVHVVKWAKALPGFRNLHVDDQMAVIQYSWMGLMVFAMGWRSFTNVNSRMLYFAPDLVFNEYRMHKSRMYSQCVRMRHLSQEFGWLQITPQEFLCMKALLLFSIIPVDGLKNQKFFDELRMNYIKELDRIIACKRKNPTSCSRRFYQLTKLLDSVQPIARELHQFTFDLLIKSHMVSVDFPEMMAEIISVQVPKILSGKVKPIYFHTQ
T1 sequence (Q96SW2 whole entry, looked up): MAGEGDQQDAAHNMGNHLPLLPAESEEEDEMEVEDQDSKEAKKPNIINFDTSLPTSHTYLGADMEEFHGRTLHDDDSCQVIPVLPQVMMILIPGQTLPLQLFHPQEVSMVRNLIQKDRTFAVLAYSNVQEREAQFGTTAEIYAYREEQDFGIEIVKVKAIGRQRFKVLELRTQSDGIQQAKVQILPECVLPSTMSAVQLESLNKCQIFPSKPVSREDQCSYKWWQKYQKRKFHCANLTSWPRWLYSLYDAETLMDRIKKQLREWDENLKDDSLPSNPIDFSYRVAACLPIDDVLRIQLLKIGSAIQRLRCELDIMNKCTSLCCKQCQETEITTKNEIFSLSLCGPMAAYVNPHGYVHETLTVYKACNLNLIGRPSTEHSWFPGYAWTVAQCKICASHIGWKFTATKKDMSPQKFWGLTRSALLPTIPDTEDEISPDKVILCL

[3] = target: T2, Protein cereblon/Eukaryotic peptide chain release factor GTP-binding subunit ERF3A (Homo sapiens, UniProt Q96SW2+P15170); assay: Molecular glue activity at CRBN/GSPT1 in human 22Rv1 cells assessed as induction of GSPT1 degradation at 5 uM incubated for 24 hrs by Western blot analysis relative to control
T2 sequence (P15170 whole entry, looked up, canonical isoform): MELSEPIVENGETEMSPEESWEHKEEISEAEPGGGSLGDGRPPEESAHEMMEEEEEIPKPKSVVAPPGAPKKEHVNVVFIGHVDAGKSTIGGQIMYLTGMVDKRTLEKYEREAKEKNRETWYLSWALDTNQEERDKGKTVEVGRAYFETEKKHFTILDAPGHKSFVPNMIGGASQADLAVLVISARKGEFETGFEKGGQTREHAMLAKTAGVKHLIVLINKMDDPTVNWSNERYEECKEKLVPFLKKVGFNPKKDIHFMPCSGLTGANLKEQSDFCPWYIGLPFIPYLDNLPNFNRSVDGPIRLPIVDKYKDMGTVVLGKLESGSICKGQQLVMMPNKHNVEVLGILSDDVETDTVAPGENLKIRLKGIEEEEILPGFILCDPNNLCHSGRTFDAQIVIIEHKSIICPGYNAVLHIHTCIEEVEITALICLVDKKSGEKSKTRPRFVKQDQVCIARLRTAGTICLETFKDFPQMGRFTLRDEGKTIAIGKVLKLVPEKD
T2 sequence (Q96SW2 whole entry, looked up, canonical isoform): as the sequence (Q96SW2 whole entry, looked up) above

[4] = test system: Protein cereblon/Androgen receptor (Homo sapiens), P10275+Q96SW2 [UNDEFINED MUTATION]; assay: PROTAC activity at CRBN/Androgen receptor splice variant 7 in human VCaP cells assessed as induction of AR-V7 degradation at 1 uM incubated for 24 hrs by Western blot analysis relative to control
[5] = test system: Protein cereblon/Androgen receptor (Homo sapiens), P10275+Q96SW2 [UNDEFINED MUTATION]; assay: PROTAC activity at CRBN/Androgen receptor splice variant 7 in human 22Rv1 cells assessed as induction of AR-V7 degradation at 5 uM incubated for 24 hrs by Western blot analysis relative to control
[6] = target: T2, Protein cereblon/Eukaryotic peptide chain release factor GTP-binding subunit ERF3A; assay: Molecular glue activity at CRBN/GSPT1 in human 22Rv1 cells assessed as induction of GSPT1 degradation at 1 uM incubated for 24 hrs by Western blot analysis relative to control
[7] = target: T1, Protein cereblon/Androgen receptor; assay: PROTAC activity at CRBN/AR in human 22Rv1 cells assessed as induction of AR degradation at 5 uM incubated for 24 hrs by Western blot analysis relative to control
[8] = target: T1, Protein cereblon/Androgen receptor; assay: PROTAC activity at CRBN/AR in human VCaP cells assessed as induction of AR degradation at 5 uM incubated for 24 hrs by Western blot analysis relative to control
[9] = target: T1, Protein cereblon/Androgen receptor; assay: PROTAC activity at CRBN/AR in human 22Rv1 cells assessed as induction of AR degradation at 1 uM incubated for 24 hrs by Western blot analysis relative to control
[10] = test system: Protein cereblon/Androgen receptor (Homo sapiens), P10275+Q96SW2 [UNDEFINED MUTATION]; assay: PROTAC activity at CRBN/Androgen receptor splice variant 7 in human VCaP cells assessed as induction of AR-V7 degradation at 5 uM incubated for 24 hrs by Western blot analysis relative to control

Protein cereblon/Androgen receptor (Homo sapiens), P10275+Q96SW2 [UNDEFINED MUTATION], sequence (P10275 whole entry, looked up, change not shown, canonical isoform): as the sequence (P10275 whole entry, looked up) above
Protein cereblon/Androgen receptor (Homo sapiens), P10275+Q96SW2 [UNDEFINED MUTATION], sequence (Q96SW2 whole entry, looked up, change not shown, canonical isoform): as the sequence (Q96SW2 whole entry, looked up) above

SMILES | Activity [1] | Activity [2] | Activity [3] | Activity [4] | Activity [5] | Activity [6] | Activity [7] | Activity [8] | Activity [9] | Activity [10]
CC(C)(c1ccc(OCC2CCN(C(=O)CCCCCNc3cccc4c3C(=O)N(C3CCC(=O)NC3=O)C4=O)CC2)cc1)c1ccc(OC[C@H](O)CCl)cc1 (stereo not given in full) | 28.4% | < 5% | 68.9% | 21.6% | 25.5% | 65.1% | 19.7% | 11.7% | 11.7% | 36.1%
CC(C)(c1ccc(OCC2CCN(C3CN(C(=O)CCNc4ccc5c(c4)C(=O)N(C4CCC(=O)NC4=O)C5=O)C3)CC2)cc1)c1ccc(OC[C@H](O)CCl)cc1 (stereo not given in full) | 5% | 32.7% | 15.5% | 20% | < 5% | 14.4% | < 5% | 19.8% | < 5% | 11.9%
CC(C)(c1ccc(OCC2CCN(C(=O)CCCCCCNc3cccc4c3C(=O)N(C3CCC(=O)NC3=O)C4=O)CC2)cc1)c1ccc(OC[C@H](O)CCl)cc1 (stereo not given in full) | < 5% | < 5% | 39.8% | < 5% | 11% | 36.5% | 38% | < 5% | 10.1% | 9.2%
CC(C)(c1ccc(OCC2CCN(C(=O)CCCCCCOc3ccc4c(c3)C(=O)N(C3CCC(=O)NC3=O)C4=O)CC2)cc1)c1ccc(OC[C@H](O)CCl)cc1 (stereo not given in full) | 34.4% | < 5% | 92.7% | < 5% | 33.9% | 77.9% | 16.4% | 8% | 20.1% | < 5%
CC(C)(c1ccc(OCC2CCN(C(=O)CCCCCCCNc3cccc4c3C(=O)N(C3CCC(=O)NC3=O)C4=O)CC2)cc1)c1ccc(OC[C@H](O)CCl)cc1 (stereo not given in full) | 12.5% | < 5% | 45.8% | 8.4% | 52.3% | 32.3% | 25% | < 5% | 7.8% | 14.3%
CC(C)(c1ccc(OCC2CCN(C(=O)CCCCCCNc3ccc4c(c3)C(=O)N(C3CCC(=O)NC3=O)C4=O)CC2)cc1)c1ccc(OC[C@H](O)CCl)cc1 (stereo not given in full) | 8.6% | < 5% | 79.8% | < 5% | 30.7% | 81% | 33.1% | 14.2% | 14.4% | < 5%
CC(C)(c1ccc(OCC2CCN(C(=O)CCCCCCCNc3ccc4c(c3)C(=O)N(C3CCC(=O)NC3=O)C4=O)CC2)cc1)c1ccc(OC[C@H](O)CCl)cc1 (stereo not given in full) | < 5% | 4.9% | 42% | < 5% | < 5% | 37.2% | 7.5% | 10.2% | < 5% | 7%
CC(C)(c1ccc(OCC2CCN(C3CN(C(=O)CCCCNc4ccc5c(c4)C(=O)N(C4CCC(=O)NC4=O)C5=O)C3)CC2)cc1)c1ccc(OC[C@H](O)CCl)cc1 (stereo not given in full) | 5% | 17.7% | 41.2% | 14.9% | < 5% | 33.8% | < 5% | 40.9% | 13.5% | 6.4%
CC(C)(c1ccc(OCC2CCN(C3CN(C(=O)CCCNc4ccc5c(c4)C(=O)N(C4CCC(=O)NC4=O)C5=O)C3)CC2)cc1)c1ccc(OC[C@H](O)CCl)cc1 (stereo not given in full) | 5% | 6.8% | 76.7% | < 5% | < 5% | 57.5% | 10.2% | 25.4% | 12.1% | 24.2%
CC(C)(c1ccc(OCC2CCN(C3CN(C(=O)CNc4ccc5c(c4)C(=O)N(C4CCC(=O)NC4=O)C5=O)C3)CC2)cc1)c1ccc(OC[C@H](O)CCl)cc1 (stereo not given in full) | < 5% | < 5% | 60.9% | < 5% | < 5% | 37% | < 5% | < 5% | < 5% | < 5%
CC(C)(c1ccc(OCC2CCN(C(=O)CCCCNc3cccc4c3C(=O)N(C3CCC(=O)NC3=O)C4=O)CC2)cc1)c1ccc(OC[C@H](O)CCl)cc1 (stereo not given in full) | 20.1% | < 5% | 47.1% | < 5% | 27.1% | 39.6% | 22.3% | < 5% | 12.4% | < 5%

More lines, now with the values ahead:

Activity [1] | Activity [2] | Activity [3] | Activity [4] | Activity [5] | Activity [6] | Activity [7] | Activity [8] | Activity [9] | Activity [10] | SMILES
11.8% | 8.5% | 89.3% | 5.9% | 9.3% | 86% | 21.6% | 13.7% | 8.6% | 8.2% | CC(C)(c1ccc(OCC2CCN(C(=O)CCCCNc3ccc4c(c3)C(=O)N(C3CCC(=O)NC3=O)C4=O)CC2)cc1)c1ccc(OC[C@H](O)CCl)cc1 (stereo not given in full)
29.9% | 5.9% | 95.5% | < 5% | 67.4% | 86.1% | 43.6% | 20% | 5.8% | 34% | CC(C)(c1ccc(OCC2CCN(C(=O)CCCCCOc3ccc4c(c3)C(=O)N(C3CCC(=O)NC3=O)C4=O)CC2)cc1)c1ccc(OC[C@H](O)CCl)cc1 (stereo not given in full)
33.3% | < 5% | 44.4% | < 5% | 56% | 29.6% | 32.3% | < 5% | < 5% | < 5% | CC(C)(c1ccc(OCC2CCN(C(=O)CCCCOc3ccc4c(c3)C(=O)N(C3CCC(=O)NC3=O)C4=O)CC2)cc1)c1ccc(OC[C@H](O)CCl)cc1 (stereo not given in full)
34.8% | < 5% | 30.7% | < 5% | 14.6% | 25.5% | < 5% | 18.6% | 13.7% | 26.4% | CC(C)(c1ccc(OCC2CCN(C(=O)CCCCC#Cc3ccc4c(c3)C(=O)N(C3CCC(=O)NC3=O)C4=O)CC2)cc1)c1ccc(OC[C@H](O)CCl)cc1 (stereo not given in full)
48.2% | 8.4% | 34% | 7.4% | 18.1% | 28.5% | < 5% | < 5% | 24.6% | 5.2% | CC(C)(c1ccc(OCC2CCN(C(=O)CCCC#Cc3ccc4c(c3)C(=O)N(C3CCC(=O)NC3=O)C4=O)CC2)cc1)c1ccc(OC[C@H](O)CCl)cc1 (stereo not given in full)
